# Values of other authors, collected in patent publication US20220160669A1, “PARENTERAL NUTRITION FORMULATION” (BAXTER INTERNATIONAL INC., priority 2020, published 2022).
# Details: human, in vivo; cited from earlier work
smiles,measurement,value
CCCC(=O)[O-].[Na+] [sodium butyrate],clearance rate,83 ± 12 mL/min/kg
